Experimental data reported in PubChem BioAssay (NCI).
“And” between values parts separate entries of the source, which are not always exact repeats. Equal entries are not always repeated.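 Compound exposure: 48 hours, 5 concentrations, 96-well plates. At the GI50, growth is halved. Definition used: TGI = concentration required for complete inhibition of growth.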

Experiments:
Assay in all cases: growth of human tumour cells (NCI), 48 h
LOX IMVI melanoma = tested on: LOX IMVI melanoma
SNB-75 CNS = tested on: SNB-75 CNS
T-47D breast = tested on: T-47D breast
UO-31 renal = tested on: UO-31 renal
NCI-H226 lung = tested on: NCI-H226 lung
NCI-H23 lung = tested on: NCI-H23 lung
OVCAR-5 ovarian = tested on: OVCAR-5 ovarian
UACC-257 melanoma = tested on: UACC-257 melanoma

Compound	GI50 (LOX IMVI melanoma)	TGI (LOX IMVI melanoma)	GI50 (SNB-75 CNS)	TGI (SNB-75 CNS)	GI50 (T-47D breast)	TGI (T-47D breast)	GI50 (UO-31 renal)	TGI (UO-31 renal)	GI50 (NCI-H226 lung)	TGI (NCI-H226 lung)	GI50 (NCI-H23 lung)	TGI (NCI-H23 lung)	GI50 (OVCAR-5 ovarian)	TGI (OVCAR-5 ovarian)	GI50 (UACC-257 melanoma)	TGI (UACC-257 melanoma)
O=C(CSC1CCc2ccccc21)N/N=C/c1ccccc1O (centres undefined)	2.37 µM	21.5 µM	5.52 µM	> 100 µM	7.04 µM	> 100 µM	0.985 µM	17 µM	3.11 µM	35.8 µM	9.83 µM	> 100 µM	8.8 µM	> 100 µM		
CCN(Cc1ccccc1C)c1ccc(CO)c(Cl)c1	17.6 µM	33 µM	9.62 µM	25 µM	0.244 µM	2.19 µM	12.9 µM	32.9 µM	0.0375 µM	0.201 µM	12.8 µM	38 µM	0.391 µM	1.74 µM	0.278 µM	1.67 µM
C1=C\COCc2cc(ccc2OCCN2CCCC2)Nc2nccc(n2)-c2cccc(c2)COC/1	0.847 µM	2.88 µM	1.64 µM	4.75 µM	1.37 µM	5.12 µM	0.722 µM	4.01 µM	3.19 µM	5.09 µM	2.09 µM	5.79 µM	1.16 µM	5.38 µM	2.53 µM	5.66 µM
O=C(c1ccc(/C=C/c2n[nH]c3ccccc23)cc1)N1CCNCC1	1.76 µM and 2.34 µM	3.26 µM and 12.2 µM	3.81 µM and 2.37 µM	> 10 µM and 9.14 µM	19.5 µM	47.1 µM	2.94 µM and 2.95 µM	> 10 µM and 15.1 µM	> 10 µM and 1.84 µM	> 10 µM and 8.66 µM	> 10 µM and 2.55 µM	> 10 µM and 16.9 µM	> 10 µM and 2.51 µM	> 10 µM and 26.1 µM	1.76 µM and 7.57 µM	3.3 µM and 21 µM
O=C(Nc1ccc(F)cc1)c1cc(S(=O)(=O)Nc2nc3ccccc3o2)c(SCc2ccccc2)cc1Cl	18 µM	34.2 µM	24.3 µM	56.9 µM	28.3 µM	> 100 µM	14.1 µM	29.2 µM	12.1 µM	28.4 µM	19.5 µM	36.9 µM	19.7 µM	35.1 µM	13.5 µM	28.4 µM
COc1ccc(CCNC(=O)c2ccc(NC3=C(Cl)C(=O)N(Cc4ccccc4)C3=O)cc2)cc1OC			38.4 µM	> 100 µM	5.31 µM	> 100 µM			10 µM	> 100 µM	2.01 µM	4.46 µM	16.9 µM	43.7 µM	20.3 µM	48.6 µM
O=C1NC(=O)C(c2cccc([N+](=O)[O-])c2)=C1Nc1cc(Cl)c(O)c(Cl)c1	24.3 µM	> 25 µM	10.7 µM	> 25 µM	> 25 µM	> 25 µM	> 17.6 µM	> 25 µM					> 25 µM	> 25 µM		
CC1=C(C(=O)Nc2ccc(Cl)c(Cl)c2)C(c2cccc(Oc3ccccc3)c2)NC(=O)N1 (centres undefined)	4.33 µM	13.8 µM	15.9 µM	> 50 µM	22.9 µM	> 50 µM	4.74 µM	> 50 µM	8.36 µM	19.8 µM			13.4 µM	33 µM	11.9 µM	42.6 µM
COc1cc2c(c(OC)c1OC)-c1ncc3cc4c(cc3c1C2)OCO4	14.3 µM	34.1 µM	79.4 µM	> 100 µM			12.5 µM	74.6 µM					> 100 µM	> 100 µM		
COc1ncc(-c2ccc3ncnc(Nc4cccc(Cl)c4)c3c2)cc1NS(=O)(=O)C1CC1											3.8 µM	> 100 µM				
COC(=O)[C@@H](C)C[C@H](Cc1ccccc1)NC(=O)c1csc([C@@H](C[C@H](C(C)C)N(C)C(=O)[C@@H](NC(=O)[C@H]2CCCCN2C)C2CCCCC2)OC(C)=O)n1	0.00139 µM and 0.0025 µM	23 µM	0.00103 µM and 0.0025 µM	22.2 µM			0.00684 µM and 0.0415 µM	7.76 µM	0.0025 µM	> 25 µM	0.00079 µM and 0.0025 µM	> 25 µM	0.00685 µM and 0.0025 µM	> 25 µM		
CCn1sc2ccccc2c1=O		7.73 µM		26.6 µM		35.2 µM				50.7 µM		34.7 µM		> 27.5 µM		32.7 µM
O=C1c2ccccc2-c2c1c1ccccc1c(=O)n2CCCCl	6.78 µM	35.7 µM	8.4 µM	36.6 µM	22.5 µM	> 100 µM	6.47 µM	69.2 µM			15.7 µM	50.1 µM			12.6 µM	76.5 µM
O=C1NC(=NCCc2cccc(Cl)c2)S/C1=C\c1ccc2ncccc2c1			> 25 µM	> 25 µM	> 25 µM	> 25 µM	> 25 µM	> 25 µM	> 25 µM	> 25 µM	> 25 µM	> 25 µM	> 25 µM	> 25 µM	> 25 µM	> 25 µM
